Data as given in the supplement of paper PMC10307832.

What was measured:
Experiment in all cases: relative viability (nuclei count vs DMSO), 5 days (fraction); higher = more cells survive
TPCA-1 + Foretinib = compound: C1=CC(=CC=C1C2=CC(=C(S2)NC(=O)N)C(=O)N)F [TPCA-1] + COc1cc2c(Oc3ccc(NC(=O)C4(C(=O)Nc5ccc(F)cc5)CC4)cc3F)ccnc2cc1OCCCN1CCOCC1 [Foretinib] (partner 0.25 µM)
How it was run: (§1)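 A single step with final 0.05% Triton X-100, 1% formaldehyde and 1 ug/ml Hoechst fixed the cells and stained nuclei 5 days after treatment. Lung cancer cell lines in 1536-well plates had been treated by pin tool the day after seeding with one drug alone or a fixed anchor-drug dose plus five library-drug doses (not always all listed) in √10 steps, and nuclei were counted on 4× images. Relative viability is the ratio of nuclei in treated wells to nuclei in vehicle wells, taken as the median of duplicate plates.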

[1] = compound: C1/C(=C\C2=CC=CS2)/C(=O)/C(=C/C3=CC=CS3)/C1 + COc1cc2c(Oc3ccc(NC(=O)C4(C(=O)Nc5ccc(F)cc5)CC4)cc3F)ccnc2cc1OCCCN1CCOCC1 [Foretinib] (partner 0.25 µM)
How it was run: as §1

TPCA-1 + Luminespib = compound: C1=CC(=CC=C1C2=CC(=C(S2)NC(=O)N)C(=O)N)F [TPCA-1] + CCNC(=O)c1noc(-c2cc(C(C)C)c(O)cc2O)c1-c1ccc(CN2CCOCC2)cc1 [Luminespib] (partner 0.01 µM)
How it was run: as §1

Lestaurtinib + AZD7762 = compound: C[C@]12O[C@H](C[C@]1(O)CO)n1c3ccccc3c3c4c(c5c6ccccc6n2c5c31)CNC4=O [Lestaurtinib] + NC(=O)Nc1cc(-c2cccc(F)c2)sc1C(=O)N[C@H]1CCCNC1 [AZD7762] (partner 0.2 µM)
How it was run: as §1

Cell Line | relative viability (TPCA-1 + Foretinib; first compound 0.04 µM) | relative viability (TPCA-1 + Foretinib; first compound 0.1265 µM) | relative viability (TPCA-1 + Foretinib; first compound 0.4 µM) | relative viability (TPCA-1 + Foretinib; first compound 1.265 µM) | relative viability (TPCA-1 + Foretinib; first compound 4 µM) | relative viability ([1]; first compound 0.2 µM) | relative viability ([1]; first compound 0.6325 µM) | relative viability ([1]; first compound 2 µM) | relative viability ([1]; first compound 6.325 µM) | relative viability ([1]; first compound 20 µM) | relative viability (TPCA-1 + Luminespib; first compound 0.04 µM) | relative viability (TPCA-1 + Luminespib; first compound 0.1265 µM) | relative viability (TPCA-1 + Luminespib; first compound 0.4 µM) | relative viability (TPCA-1 + Luminespib; first compound 1.265 µM) | relative viability (TPCA-1 + Luminespib; first compound 4 µM) | relative viability (Lestaurtinib + AZD7762; first compound 0.01581 µM) | relative viability (Lestaurtinib + AZD7762; first compound 0.1581 µM) | relative viability (Lestaurtinib + AZD7762; first compound 0.5 µM) | relative viability (Lestaurtinib + AZD7762; first compound 0.005 µM) | relative viability (Lestaurtinib + AZD7762; first compound 0.05 µM)
SK-LU-1 | 0.806 | 0.736 | 0.876 | 0.617 | 0.377 | 0.846 | 0.85 | 0.937 | 0.795 | 0.831 | 0.232 | 0.203 | 0.212 | 0.206 | 0.215 |  |  |  |  | 
NCI-H1299 | 1.07 | 1.07 | 1.03 | 1.09 | 1.07 | 1.17 | 1.12 | 1.1 | 1.03 | 1.11 |  |  |  |  |  |  |  |  |  | 
NCI-H2009 | 1.24 | 1.21 | 1.22 | 1.28 | 1.18 | 1.31 | 1.23 | 1.2 | 1.2 | 1.21 | 0.977 | 1.05 | 1.01 | 1.02 | 1.03 |  |  |  |  | 
COR-L 105 | 1.01 | 1.1 | 1.23 | 1.2 | 0.983 | 1.49 | 1.02 | 1.31 |  | 1.03 | 0.782 | 0.658 | 0.766 | 0.738 | 0.648 |  |  |  |  | 
A549 | 0.989 | 1.03 | 0.947 | 0.826 | 0.764 | 0.888 | 1.01 | 0.968 |  | 0.937 |  |  |  |  |  |  |  |  |  | 
SW 1573 | 0.6 | 0.811 | 1.03 | 0.964 | 0.866 | 0.879 | 0.965 | 0.939 | 0.843 | 0.825 | 0.186 | 0.181 | 0.217 | 0.204 | 0.188 |  |  |  |  | 
Calu-6 | 0.946 | 0.877 | 0.862 | 0.853 | 0.659 | 0.833 | 0.945 | 0.895 | 0.759 | 0.82 |  |  |  |  |  |  |  |  |  | 
NCI-H1648 |  |  |  |  |  |  |  |  |  |  |  |  |  |  |  | 1.47 | 0.977 | 0.644 |  | 
NCI-H1623 | 0.824 | 0.757 | 0.937 | 0.973 | 0.644 | 0.863 | 0.907 | 0.871 | 0.786 | 0.821 | 0.601 | 0.555 | 0.54 | 0.433 | 0.426 |  |  |  |  | 
HCC-78 | 0.611 | 0.52 | 0.608 | 0.65 | 0.541 | 0.581 | 0.602 | 0.56 | 0.444 | 0.481 |  |  |  |  |  | 0.662 | 0.516 | 0.333 | 0.555 | 0.517
COR-L23 | 1.11 | 0.884 | 1.05 | 0.916 | 0.803 | 1.09 | 1.09 | 0.874 | 0.859 | 0.958 | 0.682 | 0.602 | 0.762 | 0.625 | 0.381 |  |  |  |  | 
NCI-H2023 | 0.88 | 0.86 | 0.874 | 0.797 | 0.658 |  | 0.949 | 0.998 | 0.82 | 1.05 | 0.993 | 0.91 | 0.779 | 0.472 | 0.373 |  |  |  |  | 
NCI-H1563 | 1.03 | 0.944 | 0.96 | 0.991 | 1.02 | 0.952 | 1.1 | 0.968 | 0.895 | 0.93 | 0.522 | 0.601 | 0.521 | 0.532 | 0.451 |  |  |  |  | 
HCC-366 | 0.921 | 0.86 | 0.922 | 0.851 | 0.654 | 0.919 | 0.915 | 0.99 | 0.849 | 0.904 |  |  |  |  |  | 0.305 | 0.447 | 0.556 | 0.315 | 0.339
SK-MES-1 | 0.997 | 0.847 | 0.813 | 0.599 | 0.609 | 0.949 | 1 | 0.925 | 0.701 | 0.848 | 0.876 | 0.763 | 0.677 | 0.33 | 0.365 |  |  |  |  | 
EBC-1 | 0.0976 | 0.0894 | 0.103 | 0.125 | 0.13 | 0.112 | 0.091 | 0.0946 | 0.111 | 0.0934 |  |  |  |  |  |  |  |  |  | 
NCI-H1650 | 1.15 |  | 1.36 | 1.14 | 0.858 | 1.15 | 1.16 | 1.41 | 1.12 | 1.18 | 0.225 |  | 0.188 | 0.185 | 0.197 |  |  |  |  | 
IA-LM | 1.14 | 1.02 | 1.09 | 1.01 | 0.885 | 1.17 | 1.24 | 1.21 | 1.08 | 1.06 |  |  |  |  |  |  |  |  |  | 
NCI-H1703 | 0.308 | 0.33 | 0.315 |  | 0.302 | 0.381 | 0.451 | 0.33 | 0.257 | 0.337 |  |  |  |  |  | 0.115 | 0.108 | 0.0966 | 0.122 | 0.107
NCI-H661 | 1.08 | 1.03 | 1.06 | 0.96 | 0.888 | 1.05 | 1.02 | 1.02 | 0.993 | 1 | 0.973 | 0.934 | 0.962 | 0.846 | 0.806 |  |  |  |  | 
NCI-H2228 | 0.899 | 0.677 | 0.842 | 0.717 | 0.722 | 0.816 | 0.992 | 0.869 | 0.913 | 0.715 | 0.174 | 0.139 | 0.124 | 0.131 | 0.117 |  |  |  |  | 
NCI-H520 | 0.768 | 0.816 | 0.753 | 0.676 | 0.742 | 0.842 | 0.93 | 0.804 | 0.711 | 0.632 | 0.197 | 0.215 | 0.203 | 0.246 | 0.213 |  |  |  |  | 
